Measurements from PubChem BioAssay AID1963958 (Molecular Pharmacology Branch, DTP, NCI, 2024).

Test system: MDA-MB-231 multicell spheroids, viability
Assay: Anticancer human tumor MDA-MB-231 cell line growth inhibition [PI3K];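 note: spheroids exposed to agents for seven days before reading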;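 for viability, T/C: percent of vehicle control luminescence with DMSO treated spheroids as 100%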
Conditions: for IC50: curve of first compound; for viability, T/C: stronger effect = lower value; active = viability on the fitted dose curve at most 10% of control; inactive = the rest
In short: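 Spheroid viability read-out. Co-cultures contained the tumor line plus HUVEC and human MSCs. Each agent was paired with a PI3K inhibitor (inavolisib, alpelisib, duvelisib, copanlisib) across half-log dilutions starting at clinical Cmax, or at 10 microM when Cmax was unknown.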

C[C@@H](NC(=O)c1ncnc(N)c1Cl)c1ncc(C(=O)Nc2cc(C(F)(F)F)c(Cl)cn2)s1 + CC(Nc1ncnc2nc[nH]c12)c1cc2cccc(Cl)c2c(=O)n1-c1ccccc1
> 10 µM: IC50 (second compound 0.0316 µM) | IC50 (second compound 0.1 µM) | IC50 (second compound 0.316 µM)
8.16 µM: IC50 (second compound 1 µM)
inactive: viability, T/C (second compound 0.0316 µM, first compound 0.0316 µM) 142% | viability, T/C (second compound 0.0316 µM, first compound 0.1 µM) 120% | viability, T/C (second compound 0.0316 µM, first compound 0.316 µM) 110% | viability, T/C (second compound 0.0316 µM, first compound 1 µM) 85.6% | viability, T/C (second compound 0.0316 µM, first compound 3.16 µM) 75.6% | viability, T/C (second compound 0.0316 µM, first compound 10 µM) 62.6% | viability, T/C (second compound 0.1 µM, first compound 0.0316 µM) 140% | viability, T/C (second compound 0.1 µM, first compound 0.1 µM) 119% | viability, T/C (second compound 0.1 µM, first compound 0.316 µM) 106% | viability, T/C (second compound 0.1 µM, first compound 1 µM) 89.9% | viability, T/C (second compound 0.1 µM, first compound 3.16 µM) 72.7% | viability, T/C (second compound 0.1 µM, first compound 10 µM) 62.4% | viability, T/C (second compound 0.316 µM, first compound 0.0316 µM) 125% | viability, T/C (second compound 0.316 µM, first compound 0.1 µM) 124% | viability, T/C (second compound 0.316 µM, first compound 0.316 µM) 106% | viability, T/C (second compound 0.316 µM, first compound 1 µM) 80.5% | viability, T/C (second compound 0.316 µM, first compound 3.16 µM) 68% | viability, T/C (second compound 0.316 µM, first compound 10 µM) 55.9% | viability, T/C (second compound 1 µM, first compound 0.0316 µM) 114% | viability, T/C (second compound 1 µM, first compound 0.1 µM) 101% | viability, T/C (second compound 1 µM, first compound 0.316 µM) 79.1% | viability, T/C (second compound 1 µM, first compound 1 µM) 73.8% | viability, T/C (second compound 1 µM, first compound 3.16 µM) 60.1% | viability, T/C (second compound 1 µM, first compound 10 µM) 46.8% | viability, T/C (second compound 3.16 µM, first compound 0.0316 µM) 95.5% | viability, T/C (second compound 3.16 µM, first compound 0.1 µM) 79.5% | viability, T/C (second compound 3.16 µM, first compound 0.316 µM) 60.6% | viability, T/C (second compound 3.16 µM, first compound 1 µM) 51.7% | viability, T/C (second compound 3.16 µM, first compound 3.16 µM) 47.7% | viability, T/C (second compound 3.16 µM, first compound 10 µM) 37.3% | viability, T/C (second compound 10 µM, first compound 0.0316 µM) 72% | viability, T/C (second compound 10 µM, first compound 0.1 µM) 58.6% | viability, T/C (second compound 10 µM, first compound 0.316 µM) 47.8% | viability, T/C (second compound 10 µM, first compound 1 µM) 45.5% | viability, T/C (second compound 10 µM, first compound 3.16 µM) 33.6% | viability, T/C (second compound 10 µM, first compound 10 µM) 26.1%
0.334 µM: IC50 (second compound 10 µM)
1.38 µM: IC50 (second compound 3.16 µM)
